System: ASPC-1 tumor-bearing mice
Assay: Biodistribution of radionuclide labeled complexes in ASPC-1 tumor-bearing mice
Assay type: in vivo, BALB/c nude mice
Settings: for ratio of tumor AUC verse normal organ AUC: compared to ^177Lu—C2
Experimental: The BALB/c nude mice (Charles River, Beijing) were utilized to establish the xenografted model for biodistribution study. All animal care and experimental procedure were performed by following the animal protocols approved by the ethics committee of China Institute of Radiation Protection.
Briefly, each mouse was inoculated with approximately 4×10^6 ASPC-1 cells (human pancreatic cancer cell line) or HT-29 cells (human colorectal adenocarcinoma cell line) expressing human NTSR-1 by subcutaneous injection at rear flank. After inoculation, the xenografted tumors were allowed to grow for ˜2-4 weeks till the tumor weight reached to about 0.05 to 0.50 g (0.20 g in average).
Biodistribution studies were performed by administrating the radionuclide labeled test compound at a dose of ˜30-50 μCi (100 μL in 0.9% NaCl, ˜1.11-1.85 MBq, with specific activity 30-250 μCi/nmol) to each animal through tail vein injection.
At different time points after the administration, the mice treated with each compound were euthanized. The tissues and organs of the animals in each group were collected, excised, weighed, and analyzed in a PerkinElmer 2480 WIZARD2γ counter, and the percent injected dose (% ID) and % ID/g of each organ or tissue were calculated.

SMILES | % ID/g (4 h) Blood (Blood, 4 h) [% ID/g] | % ID/g (4 h) Femur (Femur, 4 h) [% ID/g] | % ID/g (4 h) Heart (Heart, 4 h) [% ID/g] | % ID/g (4 h) Intestine (Intestine, 4 h) [% ID/g] | % ID/g (4 h) Kidney (Kidney, 4 h) [% ID/g] | % ID/g (4 h) Liver (Liver, 4 h) [% ID/g] | % ID/g (4 h) Lung (Lung, 4 h) [% ID/g] | % ID/g (4 h) Muscle (Muscle, 4 h) [% ID/g] | % ID/g (4 h) Pancreas (Pancreas, 4 h) [% ID/g] | % ID/g (4 h) Spleen (Spleen, 4 h) [% ID/g] | % ID/g (4 h) Stomach (Stomach, 4 h) [% ID/g] | % ID/g (4 h) Tumor (Tumor, 4 h) [% ID/g] | % ID/g (24 h) Blood (Blood) [% ID/g] | % ID/g (24 h) Femur (Femur) [% ID/g] | % ID/g (24 h) Heart (Heart) [% ID/g] | % ID/g (24 h) Intestine (Intestine) [% ID/g] | % ID/g (24 h) Kidney (Kidney) [% ID/g] | % ID/g (24 h) Liver (Liver) [% ID/g] | % ID/g (24 h) Lung (Lung) [% ID/g] | % ID/g (24 h) Muscle (Muscle) [% ID/g] | other results
COc1cccc(OC)c1-c1cc(C(=O)NC2(C(=O)O)C3CC4CC(C3)CC2C4)nn1-c1ccc(C(=O)N(CCCNC(=O)CN2CCN(CC(=O)[O-])CCN(CC(=O)[O-])CCN(CC(=O)[O-])CC2)CCCN(C)C)cc1C(C)C.[177Lu+3] (centres unmarked) [^177Lu-C-5, reference compound] | 0.22 ± 0.07 | 0.13 ± 0.1 | 0.16 ± 0.06 | 0.42 ± 0.16 | 0.33 ± 0.09 | 0.79 ± 0.08 | 0.3 ± 0.15 | 0.06 ± 0.02 | 0.06 ± 0.02 | 0.08 ± 0.03 | 0.4 ± 0.22 | 13.06 ± 6.54 | – | – | – | – | – | – | – | – | uptake ratio Tumor/Blood (1 h): 4.7; uptake ratio Tumor/Kidney (1 h): 17.2; uptake ratio Tumor/Liver (1 h): 17.9; uptake ratio Tumor/Lung (1 h): 9.0; uptake ratio Tumor/Blood (4 h): 60.5; uptake ratio Tumor/Kidney (4 h): 40.0; uptake ratio Tumor/Liver (4 h): 16.6; uptake ratio Tumor/Lung (4 h): 43.3; % ID/g (1 h) Blood (Blood, 1 h): 3.18 ± 0.24 % ID/g; % ID/g (1 h) Femur (Femur, 1 h): 0.53 ± 0.04 % ID/g; % ID/g (1 h) Heart (Heart, 1 h): 1.46 ± 0.24 % ID/g; % ID/g (1 h) Intestine (Intestine, 1 h): 1.28 ± 0.11 % ID/g; % ID/g (1 h) Kidney (Kidney, 1 h): 0.87 ± 0.05 % ID/g; % ID/g (1 h) Liver (Liver, 1 h): 0.84 ± 0.43 % ID/g; % ID/g (1 h) Lung (Lung, 1 h): 1.66 ± 0.93 % ID/g; % ID/g (1 h) Muscle (Muscle, 1 h): 0.31 ± 0.05 % ID/g; % ID/g (1 h) Pancreas (Pancreas, 1 h): 0.26 ± 0.05 % ID/g; % ID/g (1 h) Spleen (Spleen, 1 h): 0.26 ± 0.05 % ID/g; % ID/g (1 h) Stomach (Stomach, 1 h): 0.55 ± 0.13 % ID/g; % ID/g (1 h) Tumor (Tumor, 1 h): 14.96 ± 6.57 % ID/g
COc1cccc(OC)c1-c1cc(C(=O)NC2(C(=O)O)C3CC4CC(C3)CC2C4)nn1-c1ccc(N(C)CCCN(C)CCCN(C)C(=O)CN2CCN(CC(=O)[O-])CCN(CC(=O)[O-])CCN(CC(=O)[O-])CC2)cc1C(C)C.[177Lu+3] (centres unmarked) [^177Lu-I-1] | 2.08 ± 0.14 | 0.72 ± 0.05 | 0.68 ± 0.5 | 0.98 ± 0.2 | 3.66 ± 2.51 | 1.81 ± 0.43 | 0.64 ± 0.1 | 0.47 ± 0.25 | 0.41 ± 0.28 | 0.42 ± 0.16 | 0.57 ± 0.16 | 6.93 ± 0.71 | 0.06 ± 0.02 | 0.19 ± 0.09 | 0.24 ± 0.1 | 0.37 ± 0.07 | 3.16 ± 1.81 | 0.97 ± 0.45 | 0.31 ± 10.1 | 0.13 ± 0.05 | tumor AUC over 72 hours compared to ^177Lu—C2: significantly higher tumor AUC; % ID/g (72 h) Blood (Blood): 0.04 ± 0.01 % ID/g; % ID/g (72 h) Femur (Femur): 0.15 ± 0.06 % ID/g; % ID/g (72 h) Heart (Heart): 0.18 ± 0.03 % ID/g; % ID/g (72 h) Intestine (Intestine): 0.51 ± 0.1 % ID/g; % ID/g (72 h) Kidney (Kidney): 1.3 ± 0.61 % ID/g; % ID/g (72 h) Liver (Liver): 1.06 ± 0.46 % ID/g; % ID/g (72 h) Lung (Lung): 0.33 ± 0.28 % ID/g; % ID/g (72 h) Muscle (Muscle): 0.06 ± 0.01 % ID/g; % ID/g (24 h) Pancreas (Pancreas): 0.18 ± 0.09 % ID/g; % ID/g (72 h) Pancreas (Pancreas): 0.07 ± 0.04 % ID/g; % ID/g (24 h) Spleen (Spleen): 0.53 ± 0.25 % ID/g; % ID/g (72 h) Spleen (Spleen): 0.24 ± 0.08 % ID/g; % ID/g (24 h) Stomach (Stomach): 0.28 ± 0.17 % ID/g; % ID/g (72 h) Stomach (Stomach): 0.1 ± 0.02 % ID/g; % ID/g (24 h) Tumor (Tumor): 22.56 ± 1.81 % ID/g; % ID/g (72 h) Tumor (Tumor): 7.23 ± 4.46 % ID/g; ratio of tumor AUC verse normal organ AUC: significantly improved
COc1cccc(OC)c1-c1cc(C(=O)NC2(C(=O)O)C3CC4CC(C3)CC2C4)nn1-c1ccc(NCCCN(C)CCCNC(=O)CN2CCN(CC(=O)[O-])CCN(CC(=O)[O-])CCN(CC(=O)[O-])CC2)cc1C(C)C.[177Lu+3] (centres unmarked) [^177Lu-I-2] | 9.23 ± 0.36 | 1.4 ± 0.79 | 3.78 ± 0.03 | 2.00 ± 0.18 | 2.03 ± 0.38 | 5.15 ± 1.65 | 1.77 ± 0.37 | 1.48 ± 1.16 | 0.54 ± 0.14 | – | 0.86 ± 0.1 | 23.11 ± 18.15 | 0.28 ± 0.03 | 0.39 ± 0.1 | 0.4 ± 0.13 | 1.00 ± 0.18 | 2.39 ± 0.77 | 1.66 ± 0.55 | 0.39 ± 0.11 | 0.23 ± 0.14 | tumor AUC over 72 hours compared to ^177Lu—C2: significantly higher tumor AUC; % ID/g (72 h) Blood (Blood): 0.07 ± 0.01 % ID/g; % ID/g (72 h) Femur (Femur): 0.111 ± 0.09 % ID/g; % ID/g (72 h) Heart (Heart): 0.18 ± 0.1 % ID/g; % ID/g (72 h) Intestine (Intestine): 0.55 ± 0.11 % ID/g; % ID/g (72 h) Kidney (Kidney): 1.69 ± 1.04 % ID/g; % ID/g (72 h) Liver (Liver): 1.02 ± 0.44 % ID/g; % ID/g (72 h) Lung (Lung): 0.17 ± 0.02 % ID/g; % ID/g (72 h) Muscle (Muscle): 0.05 ± 0.03 % ID/g; % ID/g (24 h) Pancreas (Pancreas): 0.32 ± 0.15 % ID/g; % ID/g (72 h) Pancreas (Pancreas): 0.08 ± 0.02 % ID/g; % ID/g (24 h) Spleen (Spleen): 1.07 ± 0.31 % ID/g; % ID/g (72 h) Spleen (Spleen): 0.19 ± 0.03 % ID/g; % ID/g (24 h) Stomach (Stomach): 0.43 ± 0.27 % ID/g; % ID/g (72 h) Stomach (Stomach): 0.22 ± 0.1 % ID/g; % ID/g (24 h) Tumor (Tumor): 25.61 ± 1.69 % ID/g; % ID/g (72 h) Tumor (Tumor): 15.44 ± 5.61 % ID/g; ratio of tumor AUC verse normal organ AUC: significantly improved
COc1cccc(OC)c1-c1cc(C(=O)NC2(C(=O)O)C3CC4CC(C3)CC2C4)nn1-c1ccc(SCCCN(C)CCCN(C)C(=O)CN2CCN(CC(=O)[O-])CCN(CC(=O)[O-])CCN(CC(=O)[O-])CC2)cc1C(C)C.[177Lu+3] (centres unmarked) [^177Lu-I-8] | 6.25 ± 1.53 | 0.89 ± 0.74 | 2.39 ± 0.51 | 3.51 ± 1.14 | 3.09 ± 1.79 | 7.4 ± 2.9 | 2.92 ± 2.09 | 0.54 ± 0.28 | 0.53 ± 0.09 | 0.71 ± 0.16 | 1.74 ± 1.36 | 16.7 ± 10.49 | 0.23 ± 0.12 | 0.4 ± 0.16 | 0.5 ± 0.12 | 1.00 ± 0.34 | 1.47 ± 1.07 | 1.86 ± 0.97 | 0.55 ± 0.34 | 0.34 ± 0.14 | % ID/g (24 h) Pancreas (Pancreas): 0.6 ± 0.2 % ID/g; % ID/g (24 h) Spleen (Spleen): 1.22 ± 0.22 % ID/g; % ID/g (24 h) Stomach (Stomach): 0.69 ± 0.46 % ID/g; % ID/g (24 h) Tumor (Tumor): 26.12 ± 10.63 % ID/g

— US20240287046A1, “COMPOUNDS AND RADIOLIGANDS FOR TARGETING NEUROTENSIN RECEPTOR AND USES THEREOF” (Full-Life Technologies HK Limited, priority 2022, published 2024)
